Several values for one entry are separate records, joined by “and”; a condition that tells them apart may be missing. Identical values can stand only once.
Tested on: total IκBα
Assay: NanoBiT cell-based immunoassay, total IκBα in MCF-7 cells
Parameters: species or system human
Conditions: for IkB degradation (% compared to no IKK16), Average / IkB degradation (% compared to no IKK16) / Non-Treated/Treated / Raw data / Subtract reagent background: TNF; for IkB degradation (% compared to no IKK16), Average: average of replicates; for IkB degradation (% compared to no IKK16) / Non-Treated/Treated / Raw data / Subtract reagent background: single replicates
Method in brief: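 Cells were lysed in 0.1% digitonin buffer, then target protein was detected with two primary antibodies plus NanoBiT detection antibodies (90 min, 23 °C), read as luminescence minus reagent background. For pSTAT3, A431 cells were serum-starved overnight before inhibitor and stimulator. For IκBα, MCF-7 cells got inhibitor for 60 min before TNFα. IC50 came from variable-slope sigmoidal fits.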

[1] = MCF-7 cells, IKK16 0.000762939 uM
[2] = MCF-7 cells, IKK16 0.00305176 uM
[3] = MCF-7 cells, IKK16 0.0488281 uM

O=C(c1ccc(Nc2nccc(-c3cc4ccccc4s3)n2)cc1)N1CCC(N2CCCC2)CC1 [IKK16]
Total IkB Raw data (Figure 3a and 3b): 147500 and 141100 and 148400
Total IkB Subtract reagent background (Figure 3a and 3b): 129800 and 128900 and 122500
Total IkB Average (Figure 3a and 3b, background subtracted): 127067
TNFα-induced reduction of total IκBα protein (MCF-7 cells, 10 µM 1 h, TNFα 50 ng per ml 10 min): abolished
IkB degradation (% compared to no IKK16), Average [1]: 98.1%
IkB degradation (% compared to no IKK16) [1]: 101% and 97% and 93%
Non-Treated/Treated [1]: 4.060 and 4.672 and 4.565 and 4.365
Raw data [1]: 21820 and 22100 and 21310 and 21710
Subtract reagent background [1]: 13931 and 13141 and 13541 and 13651
IkB degradation (% compared to no IKK16), Average [2]: 96.3%
IkB degradation (% compared to no IKK16) [2]: 103% and 93% and 95% and 94%
Non-Treated/Treated [2]: 4.119 and 4.303 and 4.479 and 4.413
Raw data [2]: 21670 and 21900 and 22440 and 21970
Subtract reagent background [2]: 13731 and 14271 and 13801 and 13501
IkB degradation (% compared to no IKK16), Average (MCF-7 cells, IKK16 0.012207 uM): 97.0%
IkB degradation (% compared to no IKK16) (MCF-7 cells, IKK16 0.012207 uM): 101% and 95% and 99% and 94%
Non-Treated/Treated (MCF-7 cells, IKK16 0.012207 uM): 4.063 and 4.367 and 4.623 and 4.410
Raw data (MCF-7 cells, IKK16 0.012207 uM): 21680 and 22090 and 22230 and 21540
Subtract reagent background (MCF-7 cells, IKK16 0.012207 uM): 13921 and 14061 and 13371 and 13511
IkB degradation (% compared to no IKK16), Average [3]: 102.5%
IkB degradation (% compared to no IKK16) [3]: 101% and 107% and 103% and 99%
Non-Treated/Treated [3]: 4.060 and 4.927 and 4.840 and 4.651
Raw data [3]: 20980 and 22100 and 20630 and 20940
Subtract reagent background [3]: 13931 and 12461 and 12771 and 12811
IkB degradation (% compared to no IKK16), Average (MCF-7 cells, IKK16 0.195312 uM): 98.7%
IkB degradation (% compared to no IKK16) (MCF-7 cells, IKK16 0.195312 uM): 99% and 97% and 98% and 100%
Non-Treated/Treated (MCF-7 cells, IKK16 0.195312 uM): 3.986 and 4.488 and 4.616 and 4.698
Raw data (MCF-7 cells, IKK16 0.195312 uM): 20850 and 22360 and 21850 and 21560
Subtract reagent background (MCF-7 cells, IKK16 0.195312 uM): 14191 and 13681 and 13391 and 12681
IkB degradation (% compared to no IKK16), Average (MCF-7 cells, IKK16 0.78125 uM): 84.0%
IkB degradation (% compared to no IKK16) (MCF-7 cells, IKK16 0.78125 uM): 86% and 82% and 85%
Non-Treated/Treated (MCF-7 cells, IKK16 0.78125 uM): 3.457 and 3.811 and 3.985 and 3.866
Raw data (MCF-7 cells, IKK16 0.78125 uM): 23580 and 24530 and 24280 and 23680
Subtract reagent background (MCF-7 cells, IKK16 0.78125 uM): 16361 and 16111 and 15511 and 15411
IkB degradation (% compared to no IKK16), Average (MCF-7 cells, IKK16 3.125 uM): 40.0%
IkB degradation (% compared to no IKK16) (MCF-7 cells, IKK16 3.125 uM): 42% and 41% and 39% and 38%
Non-Treated/Treated (MCF-7 cells, IKK16 3.125 uM): 1.686 and 1.873 and 1.836 and 1.807
Raw data (MCF-7 cells, IKK16 3.125 uM): 41140 and 41710 and 40950 and 41840
Subtract reagent background (MCF-7 cells, IKK16 3.125 uM): 33541 and 32781 and 33671 and 32971
IC50 (MCF-7 cells, pretreated 1 h, then TNFα 50 ng per ml 30 min, read-out: IC50, inhibition of TNFα induced degradation of IκBα): 1.44 µM

— publication PMC6941952, “A homogeneous bioluminescent immunoassay to probe cellular signaling pathway regulation” (Communications Biology, 2020)
